Test results published in patent publication US20110105435A1, “THERAPY OPTION FOR RECOLORATION OF HAIR VIA BISPHOSPHONATES BY PHYSIOLOGICAL REPIGMENTATION WITH AGE-RELATED AND/OR PREMATURE "GRAYED" PATIENTS” (priority 2007, published 2011).

Test system: scalp hair
Assay: Case observation: scalp hair recoloration in a myeloma patient on zoledronate monotherapy
Type: in vivo, human
Settings: Zometa 4 mg i.v. once monthly
Experimental: […] Multiple myeloma is a non-Hodgkin lymphoma and represents one of the most frequent malignant bone diseases.
Multiple myeloma in Stage I according to Durie and Salmon without osteolytic activity was diagnosed in the patient in November 2006. Since Stage I myeloma without clinically relevant symptoms are generally not aggressively treated with cytotostatic substances, the patient was included in an experimental monotherapy scheme applying Zometa® (active ingriedient: zoledronate), 4 mg i.v. in calcium-free infusion solution on a once monthly basis.
Zoledronate treatment is pursued for 6 months with a total of 6 therapy cycles until progression of myeloma (proliferation of plasma cell population in the bone marrow) made a more aggressive therapy approach necessary.
A suprising side-effect was observed:
The patient reported that they were black-haired during their teens and twens.
Since zoledronate was applied in monotherapy and no other relevant measures were deployed, the surprising change in hair coloration in the respective patient was caused by the bisphosphonate therapy of the underlying myeloma disease.

SMILES: O=P(O)(O)C(O)(Cn1ccnc1)P(=O)(O)O [zoledronate]
- change in hair coloration (repigmentation of white scalp hair) (Stage I multiple myeloma patient, completely white-haired at therapy induction, 6 cycles, monotherapy): increasingly developed black scalp hair
- duration of treatment until white appearance switched to natural-looking dark-greyish shape (myeloma patient): 3-4 months
